Measured values from ChEMBL document CHEMBL5465560, “Selectivity Literature for EUbOPEN Chemogenomic Library” (2024).
pIC50: −log10 of the molar value.

What was measured:
[1] = target: Kappa-type opioid receptor (Homo sapiens, UniProt P41145); assay: Selectivity interaction (Panel of non-epigenetic targets (kinases, GPCRs, ion channels, and transporters, Eurofins) ) EUB0000271b OPRK1; settings: at 1 µM
[2] = target: 5'-AMP-activated protein kinase catalytic subunit alpha-2 (Homo sapiens) (UniProt P54646); settings: at 10 µM
5'-AMP-activated protein kinase catalytic subunit alpha-2 (Homo sapiens), sequence (P54646 whole entry, looked up): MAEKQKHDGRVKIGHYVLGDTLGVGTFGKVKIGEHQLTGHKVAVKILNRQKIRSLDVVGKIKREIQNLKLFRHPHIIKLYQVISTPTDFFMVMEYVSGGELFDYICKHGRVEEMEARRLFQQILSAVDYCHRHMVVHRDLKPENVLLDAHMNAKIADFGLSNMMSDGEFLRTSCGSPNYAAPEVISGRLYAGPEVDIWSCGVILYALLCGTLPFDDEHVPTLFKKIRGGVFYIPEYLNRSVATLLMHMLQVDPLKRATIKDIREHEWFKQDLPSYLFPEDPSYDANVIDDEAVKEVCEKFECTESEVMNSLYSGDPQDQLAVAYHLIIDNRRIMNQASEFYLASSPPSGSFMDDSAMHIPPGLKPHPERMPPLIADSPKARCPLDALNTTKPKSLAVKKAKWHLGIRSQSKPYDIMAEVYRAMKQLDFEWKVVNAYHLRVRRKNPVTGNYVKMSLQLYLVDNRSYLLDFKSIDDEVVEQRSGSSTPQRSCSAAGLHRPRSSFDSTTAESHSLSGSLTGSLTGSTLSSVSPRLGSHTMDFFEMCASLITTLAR

[3] = target: T1, Serine/threonine-protein kinase TAO3 (Homo sapiens) (UniProt Q9H2K8); assay: Selectivity interaction (KinomeScan (DiscoverX)) EUB0000618a TAOK3; settings: at 10 µM
T1 sequence (whole entry): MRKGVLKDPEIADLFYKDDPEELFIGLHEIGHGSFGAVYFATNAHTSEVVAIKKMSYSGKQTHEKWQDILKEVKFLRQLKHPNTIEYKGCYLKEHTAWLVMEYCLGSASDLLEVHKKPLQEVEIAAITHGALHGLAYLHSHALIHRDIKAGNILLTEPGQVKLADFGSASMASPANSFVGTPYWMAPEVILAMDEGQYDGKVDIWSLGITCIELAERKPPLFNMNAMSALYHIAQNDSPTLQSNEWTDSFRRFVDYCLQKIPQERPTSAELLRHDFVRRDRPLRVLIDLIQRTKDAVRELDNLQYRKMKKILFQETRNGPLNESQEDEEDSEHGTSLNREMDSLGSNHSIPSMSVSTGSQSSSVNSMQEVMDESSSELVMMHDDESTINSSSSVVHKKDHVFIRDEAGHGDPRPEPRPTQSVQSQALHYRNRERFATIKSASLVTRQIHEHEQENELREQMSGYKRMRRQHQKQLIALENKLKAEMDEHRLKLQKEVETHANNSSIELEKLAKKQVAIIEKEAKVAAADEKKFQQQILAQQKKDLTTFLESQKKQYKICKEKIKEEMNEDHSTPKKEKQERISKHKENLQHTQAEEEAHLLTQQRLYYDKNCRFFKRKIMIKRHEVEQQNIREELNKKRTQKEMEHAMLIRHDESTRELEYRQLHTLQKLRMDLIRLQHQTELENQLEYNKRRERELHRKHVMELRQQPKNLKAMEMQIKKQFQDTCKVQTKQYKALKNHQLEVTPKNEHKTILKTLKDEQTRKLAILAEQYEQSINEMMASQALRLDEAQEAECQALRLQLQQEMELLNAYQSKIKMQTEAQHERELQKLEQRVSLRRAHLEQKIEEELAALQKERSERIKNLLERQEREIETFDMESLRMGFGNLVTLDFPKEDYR

[4] = target: Serine/threonine-protein kinase mTOR (Homo sapiens, UniProt P42345); settings: at 10 µM
[5] = target: Dual specificity mitogen-activated protein kinase kinase 2 (Homo sapiens) (UniProt P36507); settings: at 10 µM
[6] = tested on: Mast/stem cell growth factor receptor Kit (Homo sapiens), P10721 [V559D,T670I]; settings: at 10 µM
Mast/stem cell growth factor receptor Kit (Homo sapiens), P10721 [V559D,T670I], sequence (P10721 whole entry V559D/T670I): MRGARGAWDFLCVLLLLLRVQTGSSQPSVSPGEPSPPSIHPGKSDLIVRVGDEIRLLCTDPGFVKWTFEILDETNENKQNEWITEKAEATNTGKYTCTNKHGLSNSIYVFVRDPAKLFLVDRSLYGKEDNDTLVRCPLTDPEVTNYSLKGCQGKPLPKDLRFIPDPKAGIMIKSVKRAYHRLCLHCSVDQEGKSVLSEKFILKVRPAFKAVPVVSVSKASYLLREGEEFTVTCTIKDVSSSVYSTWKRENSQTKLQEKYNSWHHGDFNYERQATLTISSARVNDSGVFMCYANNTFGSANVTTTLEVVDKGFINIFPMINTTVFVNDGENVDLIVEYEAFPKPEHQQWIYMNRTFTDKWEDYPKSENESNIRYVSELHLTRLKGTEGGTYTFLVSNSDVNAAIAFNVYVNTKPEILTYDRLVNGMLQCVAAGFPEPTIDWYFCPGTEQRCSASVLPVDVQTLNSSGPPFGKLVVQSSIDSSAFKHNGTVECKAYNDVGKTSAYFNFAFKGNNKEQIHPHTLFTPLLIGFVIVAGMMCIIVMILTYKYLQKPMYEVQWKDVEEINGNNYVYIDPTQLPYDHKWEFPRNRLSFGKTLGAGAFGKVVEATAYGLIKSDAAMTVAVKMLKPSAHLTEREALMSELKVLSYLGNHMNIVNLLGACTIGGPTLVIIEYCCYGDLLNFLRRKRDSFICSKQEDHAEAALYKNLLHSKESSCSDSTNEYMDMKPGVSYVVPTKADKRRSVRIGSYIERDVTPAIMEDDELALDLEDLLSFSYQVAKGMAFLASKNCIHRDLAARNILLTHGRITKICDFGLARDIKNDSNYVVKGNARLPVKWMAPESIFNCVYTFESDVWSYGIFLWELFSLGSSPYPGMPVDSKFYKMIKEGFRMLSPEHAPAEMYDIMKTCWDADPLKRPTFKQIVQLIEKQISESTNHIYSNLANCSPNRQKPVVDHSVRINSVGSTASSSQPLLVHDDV

[7] = target: MAP/microtubule affinity-regulating kinase 3 (Homo sapiens) (UniProt P27448); assay: Selectivity interaction (ActivX KiNativ screen (kinase selectivity in THP-1 cell lysates)) EUB0000639a MARK3; format: subcellular; settings: lysate
MAP/microtubule affinity-regulating kinase 3 (Homo sapiens), sequence (P27448 whole entry, looked up): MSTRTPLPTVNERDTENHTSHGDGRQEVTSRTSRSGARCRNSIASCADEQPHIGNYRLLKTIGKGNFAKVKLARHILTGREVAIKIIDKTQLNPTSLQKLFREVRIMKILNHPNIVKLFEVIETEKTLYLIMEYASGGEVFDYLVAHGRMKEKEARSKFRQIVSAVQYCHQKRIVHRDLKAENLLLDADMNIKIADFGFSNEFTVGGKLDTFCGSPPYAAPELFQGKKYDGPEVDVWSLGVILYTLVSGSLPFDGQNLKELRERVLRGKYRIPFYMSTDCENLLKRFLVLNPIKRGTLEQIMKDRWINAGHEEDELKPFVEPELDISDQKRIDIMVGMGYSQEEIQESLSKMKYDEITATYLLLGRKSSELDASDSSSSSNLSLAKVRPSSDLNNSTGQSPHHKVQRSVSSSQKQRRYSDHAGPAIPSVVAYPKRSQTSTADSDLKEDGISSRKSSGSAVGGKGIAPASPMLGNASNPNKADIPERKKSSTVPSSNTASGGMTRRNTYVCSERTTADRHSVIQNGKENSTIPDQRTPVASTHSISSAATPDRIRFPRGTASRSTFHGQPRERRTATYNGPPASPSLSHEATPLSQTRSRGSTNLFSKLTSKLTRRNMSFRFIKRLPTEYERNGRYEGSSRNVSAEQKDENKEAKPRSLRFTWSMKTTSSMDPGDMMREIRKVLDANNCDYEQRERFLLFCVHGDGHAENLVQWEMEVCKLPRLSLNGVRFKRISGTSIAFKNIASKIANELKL

[8] = target: T2, Dual specificity mitogen-activated protein kinase kinase 6 (Homo sapiens) (UniProt P52564); assay: Selectivity interaction (Kinase panel (Invitrogen)) EUB0000639a MAP2K6; settings: at 200 nM
T2 sequence (whole entry): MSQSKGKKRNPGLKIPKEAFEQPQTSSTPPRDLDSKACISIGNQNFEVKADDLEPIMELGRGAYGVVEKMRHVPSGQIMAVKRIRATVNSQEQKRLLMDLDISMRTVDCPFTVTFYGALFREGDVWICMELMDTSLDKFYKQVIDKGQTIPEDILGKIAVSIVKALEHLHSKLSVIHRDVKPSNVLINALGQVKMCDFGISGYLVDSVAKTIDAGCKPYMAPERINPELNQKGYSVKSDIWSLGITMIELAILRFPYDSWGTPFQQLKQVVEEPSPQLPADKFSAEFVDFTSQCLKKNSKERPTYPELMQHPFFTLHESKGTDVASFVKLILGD

[9] = target: Ephrin type-A receptor 2 (Homo sapiens) (UniProt P29317); assay: Selectivity interaction (KinomeScan (DiscoverX)) EUB0000229b EPHA2; settings: at 10 µM
Ephrin type-A receptor 2 (Homo sapiens), sequence (P29317 whole entry): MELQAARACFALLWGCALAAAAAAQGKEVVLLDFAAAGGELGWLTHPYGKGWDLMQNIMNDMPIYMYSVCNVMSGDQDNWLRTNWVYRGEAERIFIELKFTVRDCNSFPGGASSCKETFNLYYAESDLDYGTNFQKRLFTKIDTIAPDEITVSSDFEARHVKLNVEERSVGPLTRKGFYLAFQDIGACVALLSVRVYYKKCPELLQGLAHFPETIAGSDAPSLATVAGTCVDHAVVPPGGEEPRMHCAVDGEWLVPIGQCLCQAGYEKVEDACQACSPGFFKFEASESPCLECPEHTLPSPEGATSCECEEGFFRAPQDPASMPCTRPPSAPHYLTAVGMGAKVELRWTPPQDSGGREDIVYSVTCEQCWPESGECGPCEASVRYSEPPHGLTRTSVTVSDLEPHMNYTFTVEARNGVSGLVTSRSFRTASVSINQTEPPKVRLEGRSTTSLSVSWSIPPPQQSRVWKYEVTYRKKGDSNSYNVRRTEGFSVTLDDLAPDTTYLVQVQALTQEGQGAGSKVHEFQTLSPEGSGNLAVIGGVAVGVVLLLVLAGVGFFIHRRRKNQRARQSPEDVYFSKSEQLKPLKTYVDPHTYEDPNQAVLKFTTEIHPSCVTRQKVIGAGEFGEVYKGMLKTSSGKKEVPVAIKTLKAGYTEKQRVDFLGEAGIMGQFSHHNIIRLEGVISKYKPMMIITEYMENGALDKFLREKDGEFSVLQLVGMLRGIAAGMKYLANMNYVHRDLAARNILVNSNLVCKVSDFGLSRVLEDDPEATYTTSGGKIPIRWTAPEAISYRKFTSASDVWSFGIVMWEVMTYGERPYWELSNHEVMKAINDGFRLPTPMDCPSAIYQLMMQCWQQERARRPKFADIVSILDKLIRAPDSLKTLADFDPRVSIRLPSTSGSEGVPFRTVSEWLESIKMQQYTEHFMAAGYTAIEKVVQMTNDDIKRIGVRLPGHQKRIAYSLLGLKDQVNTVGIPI

[10] = target: Insulin-like growth factor 1 receptor (Homo sapiens, UniProt P08069); assay: Selectivity interaction (Kinase panel (33PanQinase(R) Activity Assay)) EUB0000877a IGF1R
Insulin-like growth factor 1 receptor, sequence (P08069 31-736 limits assumed): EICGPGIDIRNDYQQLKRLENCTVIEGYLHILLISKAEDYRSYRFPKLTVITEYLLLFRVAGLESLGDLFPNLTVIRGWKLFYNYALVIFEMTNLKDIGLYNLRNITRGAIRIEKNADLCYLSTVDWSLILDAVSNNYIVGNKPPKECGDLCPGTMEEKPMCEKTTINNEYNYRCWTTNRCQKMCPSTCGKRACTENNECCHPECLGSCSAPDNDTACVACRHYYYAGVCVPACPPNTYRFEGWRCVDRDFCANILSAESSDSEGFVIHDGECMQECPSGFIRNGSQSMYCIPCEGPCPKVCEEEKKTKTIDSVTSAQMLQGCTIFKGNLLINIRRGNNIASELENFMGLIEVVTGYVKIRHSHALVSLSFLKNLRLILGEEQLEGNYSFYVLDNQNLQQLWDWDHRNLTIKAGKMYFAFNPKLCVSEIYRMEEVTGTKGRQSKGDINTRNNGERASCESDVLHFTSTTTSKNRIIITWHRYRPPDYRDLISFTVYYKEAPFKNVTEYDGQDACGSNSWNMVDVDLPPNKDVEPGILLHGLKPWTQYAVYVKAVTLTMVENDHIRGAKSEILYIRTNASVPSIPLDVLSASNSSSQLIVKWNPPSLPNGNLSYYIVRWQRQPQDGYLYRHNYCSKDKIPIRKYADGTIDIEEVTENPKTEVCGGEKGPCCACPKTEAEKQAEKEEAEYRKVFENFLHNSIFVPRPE
Insulin-like growth factor 1 receptor, sequence (P08069 741-1367 limits assumed): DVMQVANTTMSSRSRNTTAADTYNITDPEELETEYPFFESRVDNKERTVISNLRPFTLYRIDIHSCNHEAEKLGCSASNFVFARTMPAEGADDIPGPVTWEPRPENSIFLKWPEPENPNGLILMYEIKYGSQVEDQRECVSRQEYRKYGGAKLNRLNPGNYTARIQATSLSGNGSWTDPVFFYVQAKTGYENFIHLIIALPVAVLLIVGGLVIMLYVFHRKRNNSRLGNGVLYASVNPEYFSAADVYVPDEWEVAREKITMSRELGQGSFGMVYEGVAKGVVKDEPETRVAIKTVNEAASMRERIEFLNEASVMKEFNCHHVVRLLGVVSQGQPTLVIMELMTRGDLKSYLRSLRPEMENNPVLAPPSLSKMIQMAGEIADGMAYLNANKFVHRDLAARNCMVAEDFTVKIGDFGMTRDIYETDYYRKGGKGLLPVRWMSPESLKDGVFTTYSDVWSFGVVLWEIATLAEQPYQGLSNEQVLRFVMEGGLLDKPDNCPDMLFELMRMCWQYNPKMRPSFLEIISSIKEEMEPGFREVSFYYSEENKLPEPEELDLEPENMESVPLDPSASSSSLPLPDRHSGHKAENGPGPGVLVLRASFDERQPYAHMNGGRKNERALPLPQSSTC

[11] = target: T3, Tyrosine-protein kinase Tec (Homo sapiens) (UniProt P42680); assay: Selectivity interaction (KinomeScan (DiscoverX)) EUB0000695a TEC; settings: at 100 nM
T3 sequence (whole entry): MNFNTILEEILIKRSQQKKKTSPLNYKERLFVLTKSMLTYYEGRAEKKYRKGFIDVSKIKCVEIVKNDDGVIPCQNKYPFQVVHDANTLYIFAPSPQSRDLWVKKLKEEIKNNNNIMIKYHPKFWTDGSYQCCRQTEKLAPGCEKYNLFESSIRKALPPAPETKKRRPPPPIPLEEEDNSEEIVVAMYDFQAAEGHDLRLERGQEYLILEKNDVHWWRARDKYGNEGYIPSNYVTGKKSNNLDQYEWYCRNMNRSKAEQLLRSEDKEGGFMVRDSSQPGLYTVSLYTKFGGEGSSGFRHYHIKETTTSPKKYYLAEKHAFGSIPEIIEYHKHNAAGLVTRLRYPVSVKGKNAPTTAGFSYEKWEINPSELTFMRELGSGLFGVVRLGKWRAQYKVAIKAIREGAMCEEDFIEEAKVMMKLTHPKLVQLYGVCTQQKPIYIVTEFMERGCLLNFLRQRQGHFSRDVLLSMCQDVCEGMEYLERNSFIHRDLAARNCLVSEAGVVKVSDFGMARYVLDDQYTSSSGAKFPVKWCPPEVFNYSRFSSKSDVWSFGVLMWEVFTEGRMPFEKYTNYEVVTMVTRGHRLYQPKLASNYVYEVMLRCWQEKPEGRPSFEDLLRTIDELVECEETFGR

Kappa-type opioid receptor, sequence (P41145 whole entry): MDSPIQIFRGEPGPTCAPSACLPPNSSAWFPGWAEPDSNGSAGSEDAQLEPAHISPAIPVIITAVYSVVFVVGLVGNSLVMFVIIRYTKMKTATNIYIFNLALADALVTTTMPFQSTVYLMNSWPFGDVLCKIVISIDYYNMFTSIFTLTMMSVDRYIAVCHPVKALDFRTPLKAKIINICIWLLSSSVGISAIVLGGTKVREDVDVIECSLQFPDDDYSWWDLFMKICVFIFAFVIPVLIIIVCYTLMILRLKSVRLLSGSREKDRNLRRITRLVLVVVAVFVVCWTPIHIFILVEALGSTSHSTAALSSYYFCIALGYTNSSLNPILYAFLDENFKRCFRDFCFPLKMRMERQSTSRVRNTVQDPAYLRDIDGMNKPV

## Cc1cc(C)cc([C@@H]2c3cc(C)ccc3NC(=O)CN2C(=O)c2ccc(Br)s2)c1
[1]
  % of inhibition: 20%

## CCN(CC)CCCCNc1ncc2cc(-c3cc(OC)cc(OC)c3)c(NC(=O)NC(C)(C)C)nc2n1
[2]
  % of control: 100%

## O[C@H]1CC[C@H](Nc2ncc3nc(Nc4c(F)cc(F)cc4F)n([C@H]4CCOC4)c3n2)CC1
[3]
  % of control: 81%

## Cc1cc([C@@H](C)Nc2ccccc2C(=O)O)c2nc(N3CCOCC3)cc(=O)n2c1 [AZD-6482]
[4]
  % of control: 11%
[5]
  % of control: 100%
[6]
  % of control: 91%

## CC[C@@H]1[C@H](F)C(=O)N[C@@H]1COc1nccc2cc(C(N)=O)c(OC)cc12 [ZIMLOVISERTIB]
[7]; at 0.01 µM
  % of inhibition: 10%
[7]; at 0.04 µM
  % of inhibition: 17.3%
[7]; at 0.2 µM
  % of inhibition: 11.9%
[7]; at 1 µM
  % of inhibition: 26.3%
[7]; at 5 µM
  % of inhibition: 51.4%
[8]
  % of inhibition: 14.8%

## COc1cc(N(C)c2ccnc3ccc(C(F)(F)F)cc23)cc(OC)c1OC
[9]
  % binding: 88%

## CCC(=O)N1CC[C@H](Nc2ncnc3c2CN(c2cnc(OC)c(C(F)(F)F)c2)CC3)C1 [LENIOLISIB]
[10]
  pIC50: < 5.00

## Cc1cc(F)c(C(=O)Nc2cccc(-c3nncn3C(C)C)n2)cc1-n1cnc(C2CC2)c1
[11]
  % of control: 100%
